Data published in US7871635B2, “Use of compound that inactivates protein kinase A in a composition containing a cosmetically acceptable medium for lightening the skin” (Societe d'Exploitation de Produits pour les Industries …, priority 2002, dated 2011).

Legend:
[1] = tested on: Pigmented human epidermides (phototype IV); assay: Chromametric measurement of the epidermal pigmentation in reconstructed human epidermides; type: cell-based; conditions: for L* (% of the control group) / a* (% of the control group) / b* (% of the control group) / b* / a* / L*: topical, 4 days; for b*: control 7.54 ± 0.00 AU; for a*: control 10.23 ± 0.51 AU; for L*: control 41.38 ± 0.69 AU
Protocol: Pigmented human epidermides (phototype IV) supplied by Skinethic, of 0.63 cm^2, are reconstructed from a coculture of normal human keratinocytes (skin of the forearm, donor, 2nd passage) and from normal human melanocytes (skin of the forearm, donor of phototype IV, 3rd passage). The keratinocyte/melanocyte ratio is 10:1. The cocultures are inoculated onto inert polycarbonate filters. They are cultured for 10 days in the medium supplied by Skinethic, consisting of MCDB 153 medium supplemented with 5 μg/ml of insulin, 1.5 mM of calcium and growth factors. […] The epidermides are cultured in 6-well plates containing 1 ml of the medium described above. […] The application is performed every day for 4 consecutive days. The incubation medium of the reconstructed epidermides is renewed every day for 4 consecutive days. Control epidermides are treated with a formulation free of active principle. Each test is performed in duplicate. Three days after the final topical application, the color of the epidermides is evaluated using a chromameter (Minolta) by measuring the following parameters L*, a* and b*: • L* is the lightness index. A depigmenting product should increase this parameter; • a* represents the color spectrum from […]. A depigmenting product should reduce this parameter; • b*: represents the color spectrum from […]. A depigmenting product should reduce this parameter. The results are expressed in arbitrary units (AU) of each parameter and as a percentage of the control group.

[2] = tested on: B16/F1 melanocyte cultures; assay: Extracellular melanin content in B16/F1 melanocyte cultures; type: cell-based, mouse; conditions: 72 hours; for Extracellular melanin: control 43 ± 11 μg/ml
Protocol: Mouse melanocytes of the B16/F1 line are inoculated in 96-well culture plates at a density of 1500 cells/well. […] The cells are used at 60% of confluence, i.e. 4 days after inoculation. The MCM medium has the following composition: […] N-Undecylenoylphenylalanine is diluted to 4 mg/ml in decinormal aqueous sodium hydroxide solution. It is tested at 40 μg/ml in the MCM medium. Sodium hydroxide has no effect on the parameters analyzed. […] Given its toxicity, it is not tested at 40 μg/ml. […] Control cultures are incubated, in the absence of product, in the MCM medium. These control cultures are prepared on each culture plate. Each test is performed six times. After incubation for 72 hours, the incubation media of the cells (n=6) are taken up and stored at -80° C. until the time of evaluation of the effects. The extracellular melanin is quantified by spectrophotometry at 450 nm. A melanin calibration range is prepared in parallel. The results are expressed as μg/ml of extracellular […] a percentage of inhibition relative to the control group.

[3] = tested on: B16/F1 melanocyte cultures; assay: Intracellular protein content (cytotoxicity) in B16/F1 melanocyte cultures; type: cell-based, mouse
Protocol: Mouse melanocytes of the B16/F1 line are inoculated in 96-well culture plates at a density of 1500 cells/well. […] The cells are used at 60% of confluence, i.e. 4 days after inoculation. The MCM medium has the following composition: […] N-Undecylenoylphenylalanine is diluted to 4 mg/ml in decinormal aqueous sodium hydroxide solution. It is tested at 40 μg/ml in the MCM medium. Sodium hydroxide has no effect on the parameters analyzed. […] Given its toxicity, it is not tested at 40 μg/ml. […] Control cultures are incubated, in the absence of product, in the MCM medium. These control cultures are prepared on each culture plate. Each test is performed six times. This assay allows the cytotoxicity of the test products to be evaluated. It is performed in cell lysates prepared as described in the preceding paragraph. The protein assay is performed according to the Coomassie blue method described by: “Bradford M.; Anal. Biochem., 72, 1976, 248-254”. The measurement is performed by spectrophotometry at 640 nm. A bovine serum albumin (BSA) calibration range is prepared in parallel. The results are expressed as mg/ml of proteins and as a percentage of inhibition relative to the control group.

Adenylate cyclase = assay: Study of adenylate cyclase activation (ATP to cAMP, radioimmunological assay); type: biochemical, rat; conditions: 1 mg/ml; for Enzymatic activity relative to the control (adenylate cyclase): forskolin 10 μM, ATP 0.5 mM, 30 minutes at 30° C.
Protocol: The influence of N-undecylenoylphenylalanine, kojic acid and arbutin on the conversion of ATP into cAMP was compared via a radioimmunological assay.
Adenylate cyclase, which converts ATP into cAMP, is extracted from rat brains via the method described in “Salamon Y., Londos C. and Rodbell M.; Anal. Biochem., 58, 1974, 541-548”; it is then activated with 10 μM of forskolin.
They are each tested separately at a concentration of 1 mg/ml. Sodium hydroxide has no effect on the parameter studied.
The activated enzyme is incubated, in the presence or absence of these products, and in the presence of 0.5 mM of ATP, for 30 minutes at 30° C.
Control cultures are incubated, in the absence of product, and in the presence of ATP. Each test is performed in triplicate.
After incubation for 30 minutes, the amount of cAMP produced is evaluated via a radioimmunological assay performed using a commercial kit; the radioactivity is measured with a scintillation counter (Topcount, Packard), a small radioactivity count reflecting small activation of adenylate cyclase.
The results given in the table below are the means of the three tests performed for each of the products. They are expressed as a percentage of enzymatic activity relative to the control group and as a percentage of inhibition.

[4] = topical application at 1% and 3% (w/v) in an emulsion
[5] = Mus musculus, B16-F1, at 40 μg/ml, read-out: Inhibition of extracellular melanin production
[6] = at 40 μg/ml, 72 hours, control 0.45 ± 0.01

OC[C@H]1O[C@@H](Oc2ccc(O)cc2)[C@H](O)[C@@H](O)[C@@H]1O [Arbutin, arbutin]
L* (% of the control group) ([1]; formulated at 1% (w/v)): +2% | a* (% of the control group) ([1]; formulated at 1% (w/v)): −2% | b* (% of the control group) ([1]; formulated at 1% (w/v)): +1% | b* ([1]; formulated at 1% (w/v)): 7.64 ± 0.19 AU | a* ([1]; formulated at 1% (w/v)): 10.02 ± 0.13 AU | L* ([1]; formulated at 1% (w/v)): 40.48 ± 0.85 AU | L* (% of the control group) ([1]; formulated at 3% (w/v)): +1% | a* (% of the control group) ([1]; formulated at 3% (w/v)): −4% | b* (% of the control group) ([1]; formulated at 3% (w/v)): +3% | b* ([1]; formulated at 3% (w/v)): 7.73 ± 0.34 AU | a* ([1]; formulated at 3% (w/v)): 9.86 ± 0.18 AU | L* ([1]; formulated at 3% (w/v)): 41.13 ± 0.54 AU | effect on the chromametric parameters L*, a* and b* [1, 4]: no significant effect | inhibition at 40 µg/mL [2, 5]: 47% | Extracellular melanin ([2]; at 40 μg/ml): 23 ± 6 µg/mL | Total proteins [3, 6]: 0.43 ± 0.01 mg/mL | Inhibition of adenylate cyclase activity (Adenylate cyclase): 0% | Enzymatic activity relative to the control (adenylate cyclase) (Adenylate cyclase): 109.7 ± 4.6% | Inhibition of adenylate cyclase activity (Adenylate cyclase; listed as arbutin): no effect

Oc1ccc(O)cc1 [Hydroquinone, hydroquinone]
L* (% of the control group) ([1]; formulated at 0.1% (w/v)): −9% | a* (% of the control group) ([1]; formulated at 0.1% (w/v)): 0% | b* (% of the control group) ([1]; formulated at 0.1% (w/v)): +3% | b* ([1]; formulated at 0.1% (w/v)): 7.73 ± 0.03 AU | a* ([1]; formulated at 0.1% (w/v)): 10.19 ± 1.21 AU | L* ([1]; formulated at 0.1% (w/v)): 40.59 ± 2.41 AU | effect on the chromametric parameters L*, a* and b* ([1]; topical application at 0.1% (w/v) in an emulsion): no significant effect | inhibition at 5 µg/mL ([2]; Mus musculus, B16-F1, at 5 μg/ml, read-out: Inhibition of extracellular melanin production): 85% | Extracellular melanin ([2]; at 5 μg/ml): 7 ± 1 µg/mL | Inhibition of protein quantity ([3]; mouse, 72 h, 5 μg/ml): 38% | Total proteins ([3]; mouse, 72 h, 5 μg/ml): 0.28 ± 0.01 mg/mL

O=c1cc(CO)occ1O [Kojic acid, kojic acid]
L* (% of the control group) ([1]; formulated at 1% (w/v)): +3% | a* (% of the control group) ([1]; formulated at 1% (w/v)): +7% | b* (% of the control group) ([1]; formulated at 1% (w/v)): +3% | b* ([1]; formulated at 1% (w/v)): 7.67 ± 0.03 AU | a* ([1]; formulated at 1% (w/v)): 10.90 ± 0.51 AU | L* ([1]; formulated at 1% (w/v)): 40.11 ± 1.41 AU | L* (% of the control group) ([1]; formulated at 3% (w/v)): 0% | a* (% of the control group) ([1]; formulated at 3% (w/v)): −8% | b* (% of the control group) ([1]; formulated at 3% (w/v)): −5% | b* ([1]; formulated at 3% (w/v)): 7.13 ± 0.09 AU | a* ([1]; formulated at 3% (w/v)): 9.36 ± 1.02 AU | L* ([1]; formulated at 3% (w/v)): 41.69 ± 0.65 AU | effect on the chromametric parameters L*, a* and b* [1, 4]: no significant effect | inhibition at 40 µg/mL [2, 5]: 70% | Extracellular melanin ([2]; at 40 μg/ml): 13 ± 2 µg/mL | Total proteins ([3]; mouse, 72 h, 40 μg/ml): 0.41 ± 0.02 mg/mL | Inhibition of adenylate cyclase activity (Adenylate cyclase): 55% | Inhibition of adenylate cyclase activity (Adenylate cyclase; listed as kojic acid): moderate effect

C=CCCCCCCCCC(=O)NC(Cc1ccccc1)C(=O)O (centres unmarked) [N-Undecylenoylphenylalanine, N-(ω-undecylenoyl)phenylalanine]
reduction of the a* color parameter ([1]; concentration of 3% (w/v)): 14% | reduction of the b* color parameter ([1]; concentration of 3% (w/v)): 29% | L* (% of the control group) ([1]; formulated at 1% (w/v)): 0% | a* (% of the control group) ([1]; formulated at 1% (w/v)): −12% | b* (% of the control group) ([1]; formulated at 1% (w/v)): −21% | b* ([1]; formulated at 1% (w/v)): 5.96 ± 0.42 AU | a* ([1]; formulated at 1% (w/v)): 9.01 ± 1.33 AU | L* ([1]; formulated at 1% (w/v)): 41.34 ± 1.15 AU | L* (% of the control group) ([1]; formulated at 3% (w/v)): +9% | a* (% of the control group) ([1]; formulated at 3% (w/v)): −14% | b* (% of the control group) ([1]; formulated at 3% (w/v)): −29% | b* ([1]; formulated at 3% (w/v)): 5.38 ± 0.06 AU | a* ([1]; formulated at 3% (w/v)): 8.78 ± 0.52 AU | L* ([1]; formulated at 3% (w/v)): 45.228 ± 1.49 AU | L* (% of the control group) ([1]; formulated at 3% (w/v), listed as N-undecylenoylphenylalanine): 9% | inhibition of the b* color parameter ([1]; topical application at 1% (w/v) in an emulsion): 15% | inhibition at 40 µg/mL [2, 5]: 72% | Extracellular melanin ([2]; at 40 μg/ml): 12 ± 1 µg/mL | Inhibition of protein quantity ([3]; at 40 μg/ml, 72 hours): 17% | Total proteins [3, 6]: 0.38 ± 0.01 mg/mL | Inhibition of adenylate cyclase activity (Adenylate cyclase): 100% | Enzymatic activity relative to the control (adenylate cyclase) (Adenylate cyclase): −16.0 ± 0.5% | Inhibition of adenylate cyclase activity (Adenylate cyclase; listed as N-undecylenoylphenylalanine): total inactivation
